The results in this text go back to patent US20200188388A1, “METHODS AND COMPOSITIONS FOR PO[…] DRUGS AND REDUCING THEIR SIDE EFFECTS” (RVX THERAPEUTICS LTD., priority 2016, published 2020).

Each structure is given as a SMILES string. “And” between values parts separate entries of the source, which are not always exact repeats. Equal values may be shown once. Read-outs that look alike come from different tables or passages of the source.

The subject of series [1] is Wistar rats. As to the kind of experiment: Open field test, hypokinetic (sedative) or hyperkinetic action (analgesia examples). To be noted: for Hyperkinesia or sedation / Hyperkinesia / Hyperkinesia or sedataion: unmarked cells; for Hyperkinesia or sedation: doses as E6; for Horizontal locomotive activity: control 16.1; for Hyperkinesia or sedataion: doses as E12. The method, then: (§1) To evaluate the hypokinetic (sedative) or hyperkinetic action effects of tested drugs an “open field” (OF) test was applied. In the OF test, the locomotive activity of rats is determined. Animals were placed in the center of square of the illuminated field (1 meter×1 meter) for 3 minutes and the mobility time was recorded in seconds (horizontal activity). […] To quantify the locomotive activity for each dose of test drug(s) an average horizontal activity was calculated.
as §1
To evaluate the hypokinetic (sedative) effects of drugs, “open field” (OF) test was applied. In the OF test, the locomotive activity of rats is determined. Animals were placed in the center of square of the illuminated field (1 meter×1 meter) for 3 minutes and the mobility time was recorded in seconds (horizontal activity). […] To quantify the locomotive activity for each dose of test drug(s), an average horizontal activity was calculated.
Tail-Flick and Open Field Tests were Conducted as Detailed Above.
as §1

The test system of series [2] is male Wistar rats. As to the kind of experiment: Opioid hyperalgesia in tail and paw withdrawal tests (% rats).
Series [3] has as its system Wistar rats. As to the kind of experiment: Rotenone-induced PD: severe oligokinesia in open field test. It is filed as in vivo, rat. To be noted: for Severe oligokinesia (% of group): phenylephrine 0.3 mg/kg oral, oligokinesia ++-+++ in OF test; for Severe oligokinesia, Day 12 / Severe oligokinesia, Day 19: control 100. The method, then:
Locomotive activity of rats was tested in the “open field” test. […] Registration of horizontal and vertical locomotive activity was carried out in first day for rats with high selection locomotive activity (total walking time with not less than 12 seconds and the number of vertical uprights at least 4), 60 minutes before the first administration of rotenone. To identify the rotenone-induced oligokinesia in each experimental group the locomotive activity in the open field test was examined again 2 hours after the administration of rotenone on days 12 and 19 of the experiment.
(§2) Quantification of oligokinesia in points: 0 points—the highest horizontal activity (walking total time more than 12 seconds) and high vertical activity (number of vertical posts) more than 3; 1 point—reducing the horizontal activity (total walking time 7-11 seconds) and a decrease in vertical activity (the number of vertical columns 1-3); 2 points—a significant reduction in horizontal activity (total walking time 2-6 seconds) and the absence of vertical activity (the number of vertical columns 0-1); 3 points—the absence of horizontal activity (total walking time 0-1 seconds) and the absence of vertical activity (number of vertical columns 0). In each experimental group 120 minutes after administration of rotenone on days 12 and 19 of experiment the number of rats with severe oligokinesia (2-3 points) in % of the total number of rats in group was determined.
Locomotive activity of rats was tested in the “open field” test. […] Registration of horizontal and vertical locomotive activity was carried out in first day for rats with high selection locomotive activity (total walking time with not less than 12 seconds and the number of vertical uprights at least 4), 60 minutes before the first administration of rotenone. To identify the rotenone-induced oligokynesia in each experimental group the locomotive activity in the open field test was examined again 2 hours after the administration of rotenone on days 12 and 19 of the experiment.
as §2, with “of oligokynesia” for “of oligokinesia”

In series [4] the test system is Wistar rats. In words: Rotenone model: hyperkinetic side effect in open field test (days 10 and 18). It is filed as in vivo, rat. To be noted: for Hyperkmesia (% of group): phenylephrine 0.3 mg/kg oral. The method, then: Anti-parkinsonian effect of therapy in rats with rotenone-induced PD was estimated according to elimination of extrapyramidal disorders (catalepsy) and oligokinesia (rapid decreased amplitude and velocity of repeated movements) in the “open field” test. The neuro-protective effect of therapy was evaluated by the elimination of ataxia limb dystonia and mortality in rats with rotenone-induced PSP. Hyperkinetic side action (hyper-locomotion) was evaluated by increased horizontal and vertical activity in the open field at the 10th and 18th day of the experiment, calculated in % compared to the first day of the experiment.
Ataxia and limb dystonia registration was performed twice daily, 30 minutes before administration of rotenone and 180 minutes after administration of rotenone. For each experimental group on a daily basis, throughout the whole period of observation number of rats with severe ataxia and limb dystonia (++−+++) and mortality in % of the total number of rats in group was determined. The neuro-protective effect of therapy (effects on rate of ataxia, limb dystonia and lethality) in rats with PSP was determined at days 12 and 19 of the experiment as reducing the number of rats with severe ataxia limb dystonia and mortality in % compared to control. Side hyperkinetic effects were evaluated in the “open field” test. In this test the locomotive activity in rats is determined. […] Registration of horizontal and vertical locomotive activity in OF assay was performed on the 10th and 18th day of the experiment, within 40 minutes after administration of the substance and 5 minutes before administration of rotenone. Side hyperkinetic effects was evaluated by the number of rats with a significant (at least 50% compared with the first day of the experiment) increase in horizontal and vertical activity (hyperkinesia) as a % of the total number of rats in group.
Anti-parkinsonian effect of therapy in rats with rotenone-induced parkinsonism was estimated according to elimination of extrapyramidal disorders (catalepsy) and oligokinesia in the “open field” test. The neuro-protective effect of therapy was evaluated by the elimination of ataxia and mortality in rats with rotenone-induced PSP. Hyperkinetic side action (hyper-locomotion) was evaluated by increased horizontal and vertical activity in the open field at the 10th and 18th day of the experiment, calculated in % compared to the first day of the experiment.
The neuro-protective effect in the experimental groups of rats with rotenone-induced PSP was evaluated due the elimination of ataxia and mortality caused by neurotoxic action of rotenone. Ataxia is typical incoordination neurotoxic effect of rotenone manifested in uncoordinated movements and hyper-locomotion, replaced by hypokinesia and stereotypes, and in severe cases a complete violation of antigravity reflexes, falling on its side and akinesia. Assessment of the severity of ataxia in scores was performed using the following scale: (+) uncoordinated movement, hyperkinesia; (++) significant incoordination, hypokinesia, stereotypes, falling on its side; (+++) complete violation of antigravity reflexes, akinesia. Ataxia registration was performed twice daily, 30 minutes before administration of rotenone and 180 minutes after administration of rotenone. For each experimental group on a daily basis, throughout the whole period of observation number of rats with severe ataxia (++−+++) and mortality in % of the total number of rats in group was determined. The neuro-protective effect of therapy (effects on rate of ataxia and lethality) in rats with PSP was determined at days 12 and 19 of the experiment as reducing the number of rats with severe ataxia and mortality in % compared to control. Side hyperkinetic effects were evaluated in the “open field” test. In this test the locomotive activity in rats is determined. […]

Series [5] relates to Wistar rats. As to the kind of experiment: Open field test, hyperkinetic side effects (haloperidol catalepsy examples). To be noted: oral. It is filed as in vivo, rat. The method, then:
To evaluate the side hyperkinetic effects of drugs, the test an “open field” (OF) test was applied. […] To quantify the locomotive activity for each dose of the test drug(s), an average horizontal activity was calculated.

Take `CNC[C@H](O)c1ccc(O)c(O)c1` [Epinephrine, epinephrine]: the “Locomotive horizontal activity in open field” value in series [1] (I.M., control 15.6, doses by row as E32) was 15.4 s and 15.9 s and 17.6 s. For the same molecule, the Sedation in series [1] (I.M., doses by row as E3) was 0 % of Rats; in series [1] (I.M., doses by row as E32), 0% of group. In addition, the Hyperkinesia or sedation in series [1] is given as 0 % rats. The molecule further displayed a Hyperkinesia in series [1] (doses as E48) of 0 % rats. In addition, the Hyperalgesia in series [2] (doses as E6) and in series [2] (doses as E48) was 0 % rats in each case.
On to `CN1CC[C@]23c4c5ccc(O)c4O[C@H]2[C@@H](O)C=C[C@H]3[C@H]1C5` [Morphine, morphine], for which, in series [1] (oral, doses as E35), the Horizontal locomotive activity was 15.5 s and 13.2 s and 7.8 s. The molecule further registered a Hyperkinesia or sedation in series [1] of 0 % rats. Also, in series [1], the Hyperkinesia or sedataion was found to be 0 % rats. The Hyperkinesia in series [1] (doses as E48) and in series [1] (doses as E54) was 0 % rats throughout.
`CN(C)CCC=C1c2ccccc2CCc2ccccc21` [Amitriptyline, amitriptyline]: the Hyperkinesia or sedataion in series [1] stood at 0 % rats. The same molecule had a Hyperkinesia in series [1] (doses as E54) of 0 % rats. For the same molecule, the Hyperalgesia in series [2] (doses as E12) and in series [2] (doses as E54) was 0 % rats each time.
In the case of `CNC[C@H](O)c1cccc(O)c1` [Phenylephrine, phenylephrine], the “Severe oligokinesia (% of group)” value in series [3] (Day 12) is 86 % of group; in series [3] (Day 19), 100 % of group. For the same molecule, the “Severe oligokinesia, Day 12” value was 86 % of group in series [3] and 90 % of group in series [3] (doses as E38). Further, the “Severe oligokinesia, Day 19” value in series [3] and in series [3] (doses as E38) was 100 % of group in each case. Moreover, the “Hyperkinesia, Day 18” value in series [4] and in series [4] (doses as E38) was 0 % of group each time. Besides, the “Hyperkmesia (% of group)” value in series [4] (Day 10, locomotive activity in OF test increased more than 50% vs first day) is 0 % of group; in series [4] (Day 18, locomotive activity in OF test increased more than 50% vs first day) it was 0 % of group. Besides, the “Hyperkinesia, Day 10” value in series [4] (doses as E38) and in series [4] (locomotive activity in OF test increased more than 50% vs first day) was 0 % of group throughout. Also, in series [1] (oral, doses as E35), the Horizontal locomotive activity was 15.9 s and 16.3 s and 17.9 s. Besides, the Sedation in series [1] (oral, doses as E35) was 0% of group. In series [1], the Hyperkinesia or sedataion was determined as 0 % rats. Moreover, the Hyperkinesia in series [1] (doses as E54) was 0 % rats; in series [5] (doses by row as E18), 0 % of Rats; in series [5] (doses by row as E30), 0 % of Rats; in series [5] (doses by row as E60), 0 % of Rats; in series [5] (open field 40 min after dosing, doses by row as E1) it was 0 % of Rats. Further, the Hyperalgesia in series [2] (doses as E12) and in series [2] (doses as E54) was 0 % rats each time.
Turning to `Cc1c(N(C)CS(=O)(=O)[O-])c(=O)n(-c2ccccc2)n1C.[Na+]` [Dipyrone, dipyrone], the Hyperkinesia or sedataion in series [1] is given as 0 % rats. The molecule also displayed a Hyperkinesia in series [1] (doses as E54) of 0 % rats. The Hyperalgesia in series [2] (doses as E12) and in series [2] (doses as E54) was 0 % rats each time.
